The source of these data is patent US20210223230A1, “Neamine Compositions and Methods of Use Thereof” (President and Fellows of Harvard College, priority 2008, published 2021).

The subject of one assay is established PIN. Put plainly: Reversal of established PIN in 12-week-old MPAKT mice. It is filed as in vivo.
The subject of assay [1] is PC-3 human prostate cancer cells. As to conditions: nude mice, literature; cited from earlier work.
Another assay has as its target ANG (Homo sapiens, UniProt P03950). As to conditions: screen of 18,310 compounds; cited from earlier work.
For a further assay, the system named is AKT-induced PIN. In words: Prevention of AKT-induced PIN in 4-week-old MPAKT mice by small-molecule ANG inhibitors. The following applies: daily i.p. 4 weeks from week 4.
Another assay has as its system LNCaP cells. In words: LNCaP cell proliferation in phenol red-free and steroid-free medium. It is filed as cell-based, human. As to conditions: ANG 0.1 μg/ml, DHT 10 nM. How it is done: (§1) (a) ANG stimulates LNCaP cell proliferation in the absence of androgens. Cells were culture in phenol red-free and charcoal/dextran-stripped (steroid-free) FBS for 2 day and stimulated with DHT (10 nM), ANG (0.1 μg/ml), or a mixture of the two for the time indicated. (b) Dose dependence. ANG was added to the cells and cultured for 4 days. (c) Anti-ANG mAb 26-2F inhibits DHT-induced cell proliferation. LNCaP cells were stimulated with 10 nM DHT in the presence of 26-2F or a control non-immune IgG for 3 days. (d) ANG over-expression promotes LNCaP proliferation in vitro. The vector control (pCI-Neo) and ANG transfectants (pCI-ANG) were cultured in phenol red-free and steroid-free medium for the time indicated. (e) Xenograft growth in castrated SCID mice. A mixture of 70 μl cell suspension (1×10^6 cells) and 30 μl Matrigel was injected s.c. per mouse (8 per group). The mice were castrated or sham-operated at the same time. Tumors were inspected and measured twice a week and the animals were sacrificed after 8 weeks of observation. (f) Endogenous ANG of LNCaP cells is essential for androgen-induced rRNA transcription. LNCaP cells were cultured in phenol red-free and steroid-free medium and incubated with DHT (10 nM), ANG (0.1 μg/ml), anti-ANG mAb 26-2F (60 μg/ml) or a mixture of DHT and 26-2F for 2 h. […]

The next assay has as its system 47S rRNA. In words: rRNA transcription in LNCaP cells by Northern blotting. As to conditions: ANG 0.1 μg/ml, 26-2F 60 μg/ml, 2 h. The class given is cell-based, human. The procedure: as §1
The next assay has as its target T1, AR (Homo sapiens, UniProt P10275, T878A).
T1 construct: in untreated LNCaP cells, AR was diffusely distributed throughout the cytoplasm; endogenous in cells; host or cells: LNCaP
T1 sequence (P10275 1-920 T878A): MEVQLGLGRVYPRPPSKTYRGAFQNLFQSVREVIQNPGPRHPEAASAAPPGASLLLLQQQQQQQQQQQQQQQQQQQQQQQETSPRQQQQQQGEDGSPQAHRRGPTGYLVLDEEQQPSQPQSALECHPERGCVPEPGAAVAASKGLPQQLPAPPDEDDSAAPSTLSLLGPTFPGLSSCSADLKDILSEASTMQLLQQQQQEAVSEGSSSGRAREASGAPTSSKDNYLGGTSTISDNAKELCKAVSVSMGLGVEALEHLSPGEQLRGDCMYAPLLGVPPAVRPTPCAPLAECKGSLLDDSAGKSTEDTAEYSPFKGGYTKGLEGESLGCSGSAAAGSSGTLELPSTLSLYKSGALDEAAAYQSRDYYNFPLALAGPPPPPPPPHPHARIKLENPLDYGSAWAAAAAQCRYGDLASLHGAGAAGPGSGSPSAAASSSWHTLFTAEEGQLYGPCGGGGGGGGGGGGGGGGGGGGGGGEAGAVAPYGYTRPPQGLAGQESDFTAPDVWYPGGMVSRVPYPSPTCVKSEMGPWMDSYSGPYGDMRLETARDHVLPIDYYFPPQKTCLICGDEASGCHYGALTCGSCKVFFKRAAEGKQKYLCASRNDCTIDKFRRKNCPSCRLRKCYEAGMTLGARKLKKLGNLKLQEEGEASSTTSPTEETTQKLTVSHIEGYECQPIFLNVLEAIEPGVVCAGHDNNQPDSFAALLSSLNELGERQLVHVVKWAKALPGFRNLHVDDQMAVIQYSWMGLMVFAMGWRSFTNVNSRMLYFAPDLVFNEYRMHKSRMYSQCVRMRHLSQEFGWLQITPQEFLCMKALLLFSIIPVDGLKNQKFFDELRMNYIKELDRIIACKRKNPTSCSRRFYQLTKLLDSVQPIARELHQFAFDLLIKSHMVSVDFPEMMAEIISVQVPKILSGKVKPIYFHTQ
Put plainly: Nuclear translocation of AR in LNCaP cells by immunofluorescence. It is filed as cell-based. As to conditions: ANG 0.1 μg/ml, 2 h. How it is done: FIG. 19 is a four panel figure that depicts a series of photographs showing immunofluorescently labeled LNCaP cells, showing the effect of ANG on nuclear translocation of AR (panels a-d). LNCaP cells were cultured in charcoal/dextran-stripped FBS and phenol red-free medium for 2 days, and incubated with ANG (0.1 μg/ml), DHT (10 nM) or DHT (10 nM)+anti-ANG mAb 26-2F (30 μg/ml) for 2 h. The cells were fixed and stained for AR by immunofluorescence.

Assay [2] relates to PC-3, PC-3M, and DU-145 cells. In words: Proliferation of androgen-independent prostate cancer cells. The class given is cell-based, human.
A further assay deals with PIN. In words: Injection of human ANG protein into the ventral prostate of MPAKT mice (cancer invasion). The class given is in vivo. As to conditions: 50 μg per mouse, 9 weeks-old MPAKT mice, sacrificed 2 weeks later. The procedure: Human ANG protein, 50 μg per mouse, was injected into the surgically exposed ventral prostate of 9 weeks-old MPAKT mice. The mice were sacrificed 2 weeks later and the prostates were processed for H&E staining. Cells invading outside of the basement membrane are indicated by arrows.

[3] abbreviates: daily i.p. 4 weeks from week 12.

Sequence of ANG (P03950 25-147): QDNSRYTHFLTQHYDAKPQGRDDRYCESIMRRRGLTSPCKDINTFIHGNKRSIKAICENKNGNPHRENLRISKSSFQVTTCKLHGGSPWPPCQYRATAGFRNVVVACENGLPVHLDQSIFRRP

Take `Nc1ccc(N=Nc2ccc(-c3ccc(O)cc3)cc2)c2ccc(S(=O)(=O)O)cc12` [N65828, 8-amino-5-(4′-hydroxybiphenyl-4-ylazo)naphthalene-2-sulfonate]: in the assay with established PIN (setting [3]), the “AKT expression and phosphorylation (IHC)” value is listed as “not different from that of the control group”; the “established PIN phenotype (H&E)” value is “reversed”; the “rRNA transcription / 47S rRNA level (ISH)” value is on record as “dramatically decreased”. For the same compound, the apoptotic index with established PIN (neomycin 10 mg/kg, N65828 4 mg/kg daily i.p. 4 weeks from week 12, control 0.95±0.11) is 2.02±0.21 caspase 3 positive cells per duct. Further, the “xenograft growth of PC-3 cells” value in [1] is “inhibit”. At ANG, the “selectivity of enzymatic inhibition, ANG vs RNase A” value is reported as “preferentially inhibited”. Further, in the assay on AKT-induced PIN, the “47S rRNA level / transcription (ISH)” value is recorded as “inhibited”, the “AKT phosphorylation (IHC)” value is “not altered” and the “localization of ANG in prostate epithelial cells (IHC)” value is given as “remained strongly in the nucleus”. The “PIN formation (H&E)” value with AKT-induced PIN (neamine, neomycin 10 mg/kg, N65828 4 mg/kg) is recorded as “prevented PIN formation”.

As for “ANG: angiogenin, a 14 kDa angiogenic ribonuclease”, in the assay with LNCaP cells, the “LNCaP cell proliferation in the absence of androgens” value is “stimulates”. The “rRNA transcription in LNCaP cells” value with 47S rRNA is listed as “stimulated”. Also, the “nuclear translocation of AR in the absence of androgen” value in the assay with AR is “stimulated”. Besides, the “effect of exogenously added ANG on cell proliferation” value in [2] is “no effect”. Also, the “animals with micro invasions” value with PIN was 2 of the 4.
